Where two headings read alike, the source gives them in different places.
Key:
[1] = Stability of compounds in human liver microsomes; assay type: in vitro ADME; conditions: for CLint scaled at 0.5 μM / half-life at 0.5 μM: both sexes, pH 7.4; for CLint scaled at 0.5 μM: liver microsomes, calculated from HLM half-life, read-out: HLM Scaled Intrinsic Clearance; for CLint scaled at 0.5 μM / Predicted Max. Bioavailability (% F) / HLM Predicted Systemic Clearance: human; for half-life at 0.5 μM: 0.5 μM compound, 0.5 mg/mL human liver microsomes, 37° C., maxed at 420 minutes, read-out: HLM Elimination half-life (t1/2, min); for Predicted Max. Bioavailability (% F): predicted from HLM data; for HLM Predicted Systemic Clearance: scaled from HLM half-life (Obach method)
Protocol: A test compound (0.5 μM) was incubated with pooled mixed gender liver microsomes from humans (0.5 mg/mL total protein) at 37° C. in the presence of an NADPH-generating system containing 50 mM, pH 7.4 potassium phosphate buffer, 3 mM magnesium chloride, 1 mM EDTA, 1 mM NADP, 5 mM glusose-6-phosphate, and 1 Unit/mL glucose-6-phosphate dehydrogenase. All concentrations were relative to the final incubation volume of 125 μL. Incubations were conducted at 37° C. for 0, 5, 10, 20, 40, and 60 minutes in a water bath and terminated by rapid mixing with 150 μL of ice-cold acetonitrile containing internal standard. Precipitated proteins were removed by centrifugation prior to LC-MS/MS analysis. Aliquots of the resulting supernatant fractions were analyzed by LC-MS/MS monitoring for depletion of parent compound. The resultant peak area ratio versus time data was fitted to a non-linear regression using XLfit Scientific Curve Fitting Software (IDBS Ltd., Surrey, UK) and the elimination half-life (t1/2, min) was calculated from the slope. […] Additional values calculated included predicted extraction ratio and predicted maximum bioavailability.

human VMAT2 = human VMAT2 (Homo sapiens (Human), UniProt Q05940); experiment: VMAT2 radioligand binding, 3H-dihydrotetrabenazine competition on human platelet homogenate
Sequence of human VMAT2 (Q05940 whole entry): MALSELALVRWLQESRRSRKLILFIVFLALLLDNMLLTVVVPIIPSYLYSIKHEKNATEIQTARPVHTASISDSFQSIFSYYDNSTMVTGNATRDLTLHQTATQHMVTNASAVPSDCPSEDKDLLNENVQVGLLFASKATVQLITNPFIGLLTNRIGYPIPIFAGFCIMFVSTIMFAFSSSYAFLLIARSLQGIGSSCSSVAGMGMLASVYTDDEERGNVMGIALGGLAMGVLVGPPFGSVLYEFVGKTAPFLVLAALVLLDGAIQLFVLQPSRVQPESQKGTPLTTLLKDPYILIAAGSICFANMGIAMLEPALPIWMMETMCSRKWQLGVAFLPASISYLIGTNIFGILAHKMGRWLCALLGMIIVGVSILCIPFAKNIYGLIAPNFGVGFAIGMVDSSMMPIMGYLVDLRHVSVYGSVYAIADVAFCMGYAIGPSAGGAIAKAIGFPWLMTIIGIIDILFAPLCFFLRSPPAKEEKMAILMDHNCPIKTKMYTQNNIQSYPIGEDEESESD
Summary of the method: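 Ki from scintillation counting of filter-bound ³H-dihydrotetrabenazine (10 nM) after 90 min, 25 °C incubation with twelve concentrations of compound. Membranes: human platelet homogenate, 30 μg protein per well; buffer DPBS, 1 mM EDTA, pH 7.4.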

[2] = 10 nM 3H-dihydrotetrabenazine, human platelet homogenate, 25° C., 90 minutes, read-out: VMAT2 Ki

Structure (SMILES) | CLint scaled at 0.5 μM [1] [mL/min/kg] | half-life at 0.5 μM [1] [min] | Predicted Max. Bioavailability (% F) [1] [% F] | HLM Predicted Systemic Clearance [1] [mL/min/kg] | Ki (human VMAT2; [2]) [nM] | Ki (human VMAT2) [nM]
COc1cc2c(cc1OCCC1(C#N)CC1)CCN1C[C@@H](CC(C)(C)C)[C@H](O)C[C@H]21 [Compound 4-45, 1-(2-{[(2R,3R,11bR)-3-(2,2-dimethylpropyl)-2-hydroxy-10-methoxy-1H,2H,3H,4H,6H,7H,11bH-pyrido[2,1-a]isoquinolin-9-yl]oxy}ethyl)cyclopropane-1-carbonitrile] | 9.7 | 129 | 67 | 6.53 | 7.3 | –
COc1cc2c(cc1OCC1(CC#N)CC1)CCN1C[C@@H](CC(C)(C)C)[C@H](O)C[C@H]21 [Compound 4-46, 2-[1-({[(2R,3R,11bR)-3-(2,2-dimethylpropyl)-2-hydroxy-10-methoxy-1H,2H,3H,4H,6H,7H,11bH-pyrido[2,1-a]isoquinolin-9-yl]oxy}methyl)cyclo-propyl]acetonitrile] | 45.1 | 28 | 31 | 13.86 | 25 | –
COc1cc2c(cc1OCC(C)(C)O)CCN1C[C@@H](CC(C)(C)C)[C@H](O)C[C@H]21 [Compound 4-47, (2R,3R,11bR)-3-(2,2-dimethylpropyl)-9-(2-hydroxy-2-methylpropoxy)-10-methoxy-1H,2H,3H,4H,6H,7H,11bH-pyrido[2,1-a]isoquinolin-2-ol] | ≤ 2.97 | ≥ 420 | ≥87 | ≤2.59 | 15 | –
COc1cc2c(cc1OC[C@@H](O)C(F)(F)F)CCN1C[C@@H](CC(C)(C)C)[C@H](O)C[C@H]21 [Compound 4-49, (2R,3R,11bR)-3-(2,2-dimethylpropyl)-10-methoxy-9-[(2R)-3,3,3-trifluoro-2-hydroxypropoxy]-1H,2H,3H,4H,6H,7H,11bH-pyrido[2,1-a]isoquinolin-2-ol] | ≤ 2.97 | ≥ 420 | ≥87 | ≤2.59 | 20 | –
COc1cc2c(cc1OCC(O)C(F)F)CCN1C[C@@H](CC(C)(C)C)[C@H](O)C[C@H]21 (stereo partly drawn) [Compound 4-51, (2R,3R,11bR)-9-(3,3-difluoro-2-hydroxypropoxy)-3-(2,2-dimethylpropyl)-10-methoxy-1H,2H,3H,4H,6H,7H,11bH-pyrido[2,1-a]isoquinolin-2-ol] | ≤ 2.97 | ≥ 420 | ≥87 | ≤2.59 | 9.4 | –
[2H]C([2H])([2H])Oc1cc2c(cc1OC)[C@H]1C[C@@H](O)[C@H](CC(C)(C)C)CN1CC2 [Compound 4-52, (2R,3R,11bR)-3-(2,2-dimethylpropyl)-9-(methoxy-d3)-10-methoxy-1H,2H,3H,4H,6H,7H,11bH-pyrido[2,1-a]isoquinolin-2-ol] | ≤ 2.97 | ≥ 420 | ≥87 | ≤2.59 | – | 2.5
COc1cc2c(cc1O[C@@H]1CCOC1)CCN1C[C@@H](CC(C)(C)C)[C@H](O)C[C@H]21 [Compound 4-53, (2R,3R1bR)-3-(2,2-dimethylpropyl)-10-methoxy-9-[(3R)-oxolan-3-yloxy]-1H,2H,3H,4H,6H,7H,11bH-pyrido[2,1-a]isoquinolin-2-ol] | 8.57 | 146 | 70 | 6 | 12 | –
COc1cc2c(cc1O[C@H]1CCOC1)CCN1C[C@@H](CC(C)(C)C)[C@H](O)C[C@H]21 [Compound 4-54, (2R,3R,11bR)-3-(2,2-dimethylpropyl)-10-methoxy-9-[(3S)-oxolan-3-yloxy]-1H,2H,3H,4H,6H,7H,11bH-pyrido[2,1-a]isoquinolin-2-ol] | 7.59 | 164 | 73 | 5.5 | 12 | –
C=C(C)COc1cc2c(cc1OC)[C@H]1C[C@@H](O)[C@H](CC(C)(C)C)CN1CC2 [Compound 4-56, (2R,3R,11bR)-3-(2,2-dimethylpropyl)-10-methoxy-9-[(2-methylprop-2-en-1-yl)oxy]-1H,2H,3H,4H,6H,7H,11bH-pyrido[2,1-a]isoquinolin-2-ol] | 121 | 10 | 14 | 17.16 | 0.52 | –
COc1cc2c(cc1OCC1(C(F)F)CC1)CCN1C[C@@H](CC(C)(C)C)[C@H](O)C[C@H]21 [Compound 4-57, (2R,3R,11bR)-9-{[1-(difluoromethyl)cyclo-propyl]methoxy}-3-(2,2-dimethylpropyl)-10-methoxy-1H,2H,3H,4H,6H,7H,11bH-pyrido[2,1-a]isoquinolin-2-ol] | ≤ 2.97 | ≥ 420 | ≥87 | ≤2.59 | 0.93 | –
CC[C@@H](O)COc1cc2c(cc1OC)[C@H]1C[C@@H](O)[C@H](CC(C)(C)C)CN1CC2 [Compound 4-58, (2R,3R,11bR)-3-(2,2-dimethylpropyl)-9-[(2R)-2-hydroxybutoxy]-10-methoxy-1H,2H,3H,4H,6H,7H,11bH-pyrido[2,1-a]isoquinolin-2-ol] | 5.99 | 208 | 77 | 4.61 | – | 1.1
COc1cc2c(cc1OCc1ccc(C#N)o1)CCN1C[C@@H](CC(C)(C)C)[C@H](O)C[C@H]21 [Compound 4-59, 5-({[(2R,3R,11bR)-3-(2,2-dimethylpropyl)-2-hydroxy-10-methoxy-1H,2H,3H,4H,6H,7H,11bH-pyrido[2,1-a]isoquinolin-9-yl]oxy}methyl)furan-2-carbonitrile] | 24.8 | 50 | 45 | 11.08 | 1.5 | –
COc1cc2c(cc1OCc1ccccc1)CCN1C[C@@H](CC(C)(C)C)[C@H](O)C[C@H]21 [Compound 4-60, (2R,3R,11bR)-9-(benzyloxy)-3-(2,2-dimethylpropyl)-10-methoxy-1H,2H,3H,4H,6H,7H,11bH-pyrido[2,1-a]isoquinolin-2-ol] | 33.9 | 37 | 37 | 12.58 | 3.1 | –
COc1cc2c(cc1OCC1(F)CCC1)CCN1C[C@@H](CC(C)(C)C)[C@H](O)C[C@H]21 [Compound 4-61, (2R,3R,11bR)-3-(2,2-dimethylpropyl)-9-[(1-fluorocyclobutyl)methoxy]-10-methoxy-1H,2H,3H,4H,6H,7H,11bH-pyrido[2,1-a]isoquinolin-2-ol] | 42 | 30 | 32 | 13.55 | 3.5 | –
